Literature values as cited in patent US7311392B2, “Inkjet recording ink and method of inkjet recording” (Fujifilm Corporation, priority 2002, dated 2007).

Conditions: 20° C.; water-miscible organic solvent of the ink

Row | Compound | Vapor Pressure [Pa]
1 | CC(C)O [Compound 2-Propanol, 2-Propanol] | 4320 (20° C.) Pa
2 | OCCOCCO [Diethylene glycol] | <1.3 (20° C.) Pa

Other lines, results leading:

Row | Vapor Pressure [Pa] | Compound
3 | <1.3 (20° C.) Pa | CCCCOCCOCCOCCO [Triethylene glycol monobutyl ether]
4 | 1013 (20° C.) Pa | COCC(C)O (centres unmarked) [Compound 1-Methoxy-2-propanol, 1-Methoxy-2-propanol]
5 | 0.3 (20° C.) Pa | OCC(O)CO [Glycerin]
